Molecules are shown by their SMILES.

One data set relates to RTS-induced liver injury. In words: Serum ALT, hepatic MDA and GSH in RTS-induced liver injury. Type of data set: in vivo, Sprague Dawley rats. The note with it: rats. The protocol: EX and GA were dissolved in distilled water at 37°C for oral administration with the dosage of EX and GA as 500 mg/kg and 50 mg/kg. […] RTS was given following the last dose of distilled water/GA/EX. Detailed dosage regimens are described in Supplementary Figure S2. All rats were sacrificed at 48 h after the last dosing. Serum and liver samples were collected and stored at −80°C until use.
The serum alanine transaminase (ALT) level was measured by a kit obtained from Sigma-Aldrich Chemical Co. (St. Louis, MO, United States). The total bilirubin level was measured by the QuantiChromTM Bilirubin Assay kit according to the manufacturer’s instructions (BioAssay Systems, Hayward, CA, United States). Hepatic malondialdehyde (MDA) level was measured using a kit obtained from Nanjing Jiancheng Bioengineering Institute (Nanjing, China). Total GSH content in the liver was measured following a standard spectrophotometric method using Ellaman’s reagent.

The next data set has as its system rat CYP3A1. Nature of the data set: Enzymatic kinetic study with nifedipine in rat liver microsomes. Type of data set: biochemical. The method, then:
The mixture was pre-incubated at 37°C for 15 min. […] The supernatant was filtered through a 0.22 µm membrane filter before the LC-MS/MS analysis.
Data are expressed as mean ± SD. The Student’s t test was used for the comparison between two groups. The one-way ANOVA followed with a post hoc Bonferroni’s multiple comparison test was used for the comparison among multiple groups. Toxicokinetic parameters were calculated by noncompartmental methods using WinNonlin version 4.0 (Pharsight, Mountain View, CA, United States). The enzyme kinetic parameters were estimated from the best fit line using least-squares linear regression of the inverse substrate concentration versus the inverse velocity (Lineweaver-Burk plots), and the mean values were used to calculate the Km and Vmax. […] The statistical significance was set as ^* p < 0.05, ^** p < 0.01 or ^*** p < 0.001.

Where [1] appears, read: substance alone (EX/GA single and multiple administrations; RTS single dose), 48 h.

In the case of `CC1(C)[C@@H](O)CC[C@]2(C)[C@H]3C(=O)C=C4[C@@H]5C[C@@](C)(C(=O)O)CC[C@]5(C)CC[C@@]4(C)[C@]3(C)CC[C@@H]12` [GA, 18β-glycyrrhetinic acid], the “RTS-induced hepatic GSH elevation” value in the data set on RTS-induced liver injury (EX or GA treatment + RTS, especially multiple dosage regimens) is reported as “attenuated”. In the data set with RTS-induced liver injury (multiple doses + RTS 40 mg/kg), the “RTS-induced hepatic MDA elevation” value is “significantly attenuated” and the “RTS-induced serum ALT elevation” value is given as “significantly attenuated”. In the data set with RTS-induced liver injury (single dose + RTS 40 mg/kg), the “RTS-induced hepatic MDA elevation” value was “significantly reduced” and the “RTS-induced serum ALT elevation” value is listed as “significantly reduced”. Also, in the data set on RTS-induced liver injury (setting [1]), the “hepatic MDA level compared with vehicle” value was “unchanged” and the “serum ALT level compared with vehicle” value is listed as “unchanged”. In the data set on rat CYP3A1 (GA 10 µM), the “Lineweaver-Burk Slope” value worked out at 1.424±0.040, the “Lineweaver-Burk Y-intercept when X=0.0” value turned out to be 0.174±0.017 and the “Vmax of nifedipine metabolism” value came to 6.326±0.079 nmol/min/mg protein. In the data set on rat CYP3A1 (GA 25 µM), the “Lineweaver-Burk Slope” value came out at 2.671±0.041, the “Lineweaver-Burk Y-intercept when X=0.0” value is given as 0.144±0.018 and the “Vmax of nifedipine metabolism” value was 6.586±0.083 nmol/min/mg protein. Moreover, in the data set on rat CYP3A1 (GA 50 µM), the “Lineweaver-Burk Slope” value amounted to 4.916±0.064, the “Lineweaver-Burk Y-intercept when X=0.0” value turned out to be 0.137±0.028 and the “Vmax of nifedipine metabolism” value is recorded as 6.473±0.146 nmol/min/mg protein.

The record behind these values is PMC8966664 (Frontiers in Pharmacology, 2022).
